Compound | logP
COc1ccc(C=CC(C)=O)cc1 | 2.25
O=C(C=Cc1cccc([N+](=O)[O-])c1)C(F)(F)F | 2.66
N#Cc1cccc(C=CC(=O)C(F)(F)F)c1 | 2.45
CC(=O)C=Cc1cccc(F)c1 | 2.25
CC(=O)C=Cc1cccc(C#N)c1 | 1.59
CC(=O)C=Cc1ccc(Cl)cc1 | 2.8
CC(=O)C=Cc1ccc(OC(C)=O)cc1 | 1.63
CC(=O)C=Cc1ccc(N(C)C)cc1 | 2.66
CC(=O)C=Cc1ccc([N+](=O)[O-])cc1 | 1.9
COc1cccc(C=CC(C)=O)c1 | 2.27
CC(=O)C=Cc1ccc(Br)cc1 | 3.03
O=C(C=Cc1ccccc1Cl)C(F)(F)F | 3.5
CC(=O)C=Cc1cccc(C)c1 | 2.68
CC(=O)C=Cc1cccc(Br)c1 | 3.02
O=C(C=Cc1ccccc1)C(F)(F)F | 3.01
CC(=O)C=Cc1ccccc1C(F)(F)F | 3.14
COc1ccc(C=CC(=O)C(F)(F)F)cc1 | 3.33
COc1ccccc1C=CC(C)=O | 2.42
CC(=O)C=Cc1ccc(O)cc1 | 1.86

Compound | logP
CC(=O)C=Cc1ccc(C#N)cc1 | 1.64
CCc1ccc(C=CC(C)=O)cc1 | 3.26
CC(=O)C=Cc1ccccc1C | 2.6
CC(=O)C=Cc1ccccc1Cl | 2.85
COc1cccc(C=CC(=O)C(F)(F)F)c1 | 3.05
CC(=O)C=Cc1ccccc1O | 2.19
CC(=O)C=Cc1ccccc1F | 2.34
CC(=O)C=Cc1cccc(C(F)(F)F)c1 | 3.03
CC(=O)C=Cc1ccc(C(F)(F)F)cc1 | 3.13
CC(=O)C=Cc1cccc([N+](=O)[O-])c1 | 1.88
N#Cc1ccc(C=CC(=O)C(F)(F)F)cc1 | 2.42
CC(=O)C=Cc1cccc(Cl)c1 | 2.81
CCOc1ccc(C=CC(C)=O)cc1 | 2.73
CC(=O)C=Cc1ccc(F)cc1 | 2.22
COc1ccccc1C=CC(=O)C(F)(F)F | 3.39
CC(=O)C=Cc1ccc(C)cc1 | 2.65
O=C(C=Cc1cccc(Cl)c1)C(F)(F)F | 3.58
O=C(C=Cc1ccc(Cl)cc1)C(F)(F)F | 3.63

Reference: the OPERA property sets (Mansouri et al. 2018)
